Reference: patent US4277497A, “Analgesic 2-(M-benzoylphenoxy)-propionic acid derivatives” (Unicler, priority 1978, dated 1981)
Structures can show the parent of a compound that is named as a salt.

Legend:
[1] = system: painful syndrome produced in mice by phenylbenzoquinone; test: Analgesic test of Siegmund, Cadmus and Lu (phenylbenzoquinone-induced painful syndrome, stretching); type: in vivo, mice (Swiss strain); conditions: oral; for Analgesic activity at 1/10 of LD50: dose 1/10 of LD50, 30 minutes before phenylbenzoquinone; for Analgesic activity at 1/40 of LD50: dose 1/40 of LD50, 30 minutes before phenylbenzoquinone
Experimental: They were in particular subjected to the analgesic test of Siegmund, Cadmus and Lu (Proc. Soc. Exp. Biol. Med. 95, 729, 1957) according to which a characteristic painful syndrome is produced in mice by injecting phenylbenzoquinone.
The animals used are Swiss strain mice, weighing 20±2 grams.
The animals are distributed in random batches of 10, but are tested individually. Each test comprises at least two batches.
a control batch that receives the solvent and phenylbenzoquinone
a batch treated with the product being investigated.
The investigated products are administered orally, in an amount of 1/10 or 1/40 of the LD50, 30 minutes before the injection of the irritant agent. Each mouse then receives 0.25 ml of a 0.02% phenylbenzoquinone solution intraperitoneally.
The pain syndrome produced by the injection of phenylbenzoquinone causes the animals to stretch their stomach and rear paws, and at the crisis point of the reaction the animal's flanks are very contracted. 5 minutes after the injection of the irritant, the stretching is counted for a period of 10 minutes.
The average number of stretchings is calculated for each batch. The activity of the product under investigations is determined by comparison with the average number of stretchings in the treated animals (N) and the average number of stretchings in the control animals (N'). [formula]
The statistical significance of the result thus obtained is evaluated by Fisher's non-parametric test.

[2] = Oral toxicity in mice (Miller and Tainter's method); type: in vivo; conditions: mouse, in vivo, po, read-out: LD50 toxicity orally
Experimental: (§1) The toxicity of the compounds according to the invention administered orally was also determined in mice by Miller and Tainter's method.

[3] = system: carrageenin oedema; test: Carrageenin oedema test (Winter and Risley's technique), anti-inflammatory activity; type: in vivo, rats (Wistar strain, female); conditions: rats, inhibition of oedema compared with control batch
Experimental: The anti-inflammatory activity was measured by the carrageenin oedema test according to Winter and Risley's technique (Proc. Soc. Exp. Biol. 111, 544, 1962). The test was carried out on batches of 10 Wistar strain female rats weighing 180 g, which receives the products in an amount of 1/10 of the LD50. The anti-inflammatory activity corresponds to the inhibition of the oedema in the treated batch compared with the control batch.

[4] = system: mice; test: Oral toxicity in mice (Miller and Tainter's method); type: in vivo
Experimental: as §1

Row | Structure (SMILES) | Analgesic activity at 1/10 of LD50 [1] | Analgesic activity at 1/40 of LD50 [1] | LD50 [2] | Anti-inflammatory activity at 1/10 of LD50 [3] | LD50 toxicity orally [4]
1 | CCOC(=O)C(C)Oc1cccc(C(=O)c2ccc(Cl)cc2)c1C (stereo not shown) [Ethyl ester of Example 6] | 77% | 73% | 1500 mg/kg | 62% | 
2 | CC(Oc1cccc(C(=O)c2ccccc2)c1)C(=O)O (stereo not shown) [Example 1] | 86% | 84% | 1000 mg/kg | 17% | 
3 | Cc1c(OC(C)C(=O)O)cccc1C(=O)c1ccccc1 (stereo not shown) [Example 2] | 73% |  | 750 mg/kg | 33% | 
4 | CC(Oc1cccc(C(=O)c2ccc(Cl)cc2Cl)c1)C(=O)O (stereo not shown) [Example 3] | 98.5% | 71% | 1500 mg/kg | 18% | 
5 | CC(Oc1cccc(C(=O)c2ccc(Br)cc2)c1)C(=O)O (stereo not shown) [Example 4] | 84% | 58% | 1000 mg/kg | 45% | 
6 | CC(Oc1cccc(C(=O)c2ccc(F)cc2)c1)C(=O)O (stereo not shown) [Example 5] | 89% | 63% | 1500 mg/kg | 26% | 
7 | Cc1c(OC(C)C(=O)O)cccc1C(=O)c1ccc(Cl)cc1 (stereo not shown) [Example 6] | 94% | 83% | 750 mg/kg | 46% | 
8 | Cc1ccc(C(=O)c2ccc(Cl)cc2)cc1OC(C)C(=O)O (stereo not shown) [Example 7] | 81% |  | 500 mg/kg | 21% | 
9 | Cc1ccc(C(=O)c2cccc(OC(C)C(=O)O)c2)cc1 (stereo not shown) [Example 8] | 84% | 86% | 1500 mg/kg | 40% | 
10 | Cc1c(OC(C)C(=O)O)cccc1C(=O)c1ccc(Cl)cc1Cl (stereo not shown) [Example 9] | 64% |  | 750 mg/kg |  | 
11 | Cc1ccc(C(=O)c2cccc(OC(C)C(=O)O)c2C)cc1 (stereo not shown) [Example 10] | 92% |  | 600 mg/kg | 32% | 
12 | Cc1ccc(C(=O)c2cccc(OC(C)C(=O)O)c2)c(C)c1 (stereo not shown) [Example 11] | 97% | 31% | 2000 mg/kg | 41% | 
13 | CC(Oc1cccc(C(=O)c2ccccc2)c1)C(=O)O (stereo not shown) [Lysine salt of Ex. 1] | 97% | 86% |  | 50% | 2000 mg/kg
14 | Cc1c(OC(C)C(=O)O)cccc1C(=O)c1ccc(Cl)cc1 (stereo not shown) [Lysine salt of Ex. 6] | 80% | 89% |  | 57% | 1000 mg/kg
15 | Cc1ccc(C(=O)c2cccc(OC(C)C(=O)O)c2)cc1 (stereo not shown) [Lysine salt of Ex. 8] | 87% | 36% |  | 30% | 2000 mg/kg
